Source: patent US6015790A, “Methods and compositions for treating rheumatoid arthritis” (BASF Aktiengesellschaft, priority 1997, dated 2000)

Legend:
[1] = system: National Cancer Institute's P388 lymphocytic leukemia cell line; conditions: cited from earlier work
[2] = system: collagen induced arthritis in DBA-1 mice; test: Collagen induced arthritis, therapeutic model (mean arthritic score, histopathology); format: in vivo; conditions: 5 mg/kg/day intraperitoneally, 21 days from day 48, necropsy day 71, vs vehicle
[3] = system: collagen induced arthritis in DBA-1 mice; test: Collagen induced arthritis, prophylactic model (mean arthritic score); format: in vivo; conditions: 5 mg/kg/day intraperitoneally, day 26 to day 35 post immunization

Compound	inhibition of cell growth [1]	cartilage involvement (cartilage damage, histopathology, scale 0-3) [2]	synovitis (synovial inflammation, histopathology, scale 0-3) [2]	signs of rheumatoid arthritis after end of treatment (mean arthritic score) [3]
Dolastatin-15	markedly inhibits the growth			
C[C@@H]1C[C@H]2[C@@H]3CCC4=CC(=O)C=C[C@]4(C)[C@@]3(F)[C@@H](O)C[C@]2(C)[C@@]1(O)C(=O)CO [dexamethasone]		significantly suppressed	significantly suppressed	exhibited signs of rheumatoid arthritis immediately following the end of treatment
